SMILES strings stand for the structures.

Assay type in all cases: functional
One assay concerns MOLM-13. The assay is described as follows: Antiproliferative activity against human MOLM-13 cells incubated for 48 hrs by CCK8 assay. A general note: Formazan colour is commonly taken as a measure of viable cells.
The test system of the next assay is MV4-11. The assay is described as follows: Antiproliferative activity against human MV4-11 cells incubated for 48 hrs by CCK8 assay.
A further assay deals with MGC-803. Briefly: Antiproliferative activity against human MGC-803 cells incubated for 48 hrs by CCK8 assay.
The subject of another assay is MDA-MB-231. Briefly: Antiproliferative activity against human MDA-MB-231 cells incubated for 48 hrs by CCK8 assay.
The test system of the next assay is A-375. Briefly: Antiproliferative activity against human A-375 cells incubated for 48 hrs by CCK8 assay.
The test system of another assay is A549. Briefly: Antiproliferative activity against human A549 cells incubated for 48 hrs by CCK8 assay.
For another assay, the system named is GES1. Briefly: Antiproliferative activity against human GES1 cells incubated for 48 hrs by CCK8 assay.

For `Cc1c(Br)c(Br)c2c3c1nc(N1CCNCC1)n3CCC2` [SEL-120 FREE BASE], the GI50 (usually the concentration at which growth is held to half of that of the control) was found to be 20 nM in the assay on MOLM-13; 70 nM in the assay with MV4-11; 16.3 µM in the assay on MGC-803; 9.6 µM in the assay with MDA-MB-231; 5.9 µM in the assay with A-375; 12.1 µM with A549. The GI50 in the assay on GES1 came to 55.3 µM.
